Calls of active or inactive are those of the source. The rule behind the calls is not given here.
Legend:
[1] = target: T1, Amyloid-beta precursor protein (Homo sapiens, UniProt P05067); experiment: Displacement of [3H]AZD2184 from human amyloid beta(1 to 40)
[2] = test system: Mus musculus; experiment: Binding affinity to amyloid beta(1 to 40) in Tg2576 mouse plaque at 150 nmol/kg, iv after 10 mins by autoradiography analysis; type: functional, organism-based
[3] = target: T1, Amyloid-beta precursor protein; experiment: Binding affinity to amyloid beta(1 to 40) in cortical section isolated from Alzheimer disease patient at 1 nM by autoradiographic analysis
[4] = target: T1, Amyloid-beta precursor protein; experiment: Binding affinity to amyloid beta(1 to 40) in cortical section isolated from Alzheimer disease patient by autoradiographic analysis; details: tested as the 3H-labelled form

T1 sequence (P05067 whole entry): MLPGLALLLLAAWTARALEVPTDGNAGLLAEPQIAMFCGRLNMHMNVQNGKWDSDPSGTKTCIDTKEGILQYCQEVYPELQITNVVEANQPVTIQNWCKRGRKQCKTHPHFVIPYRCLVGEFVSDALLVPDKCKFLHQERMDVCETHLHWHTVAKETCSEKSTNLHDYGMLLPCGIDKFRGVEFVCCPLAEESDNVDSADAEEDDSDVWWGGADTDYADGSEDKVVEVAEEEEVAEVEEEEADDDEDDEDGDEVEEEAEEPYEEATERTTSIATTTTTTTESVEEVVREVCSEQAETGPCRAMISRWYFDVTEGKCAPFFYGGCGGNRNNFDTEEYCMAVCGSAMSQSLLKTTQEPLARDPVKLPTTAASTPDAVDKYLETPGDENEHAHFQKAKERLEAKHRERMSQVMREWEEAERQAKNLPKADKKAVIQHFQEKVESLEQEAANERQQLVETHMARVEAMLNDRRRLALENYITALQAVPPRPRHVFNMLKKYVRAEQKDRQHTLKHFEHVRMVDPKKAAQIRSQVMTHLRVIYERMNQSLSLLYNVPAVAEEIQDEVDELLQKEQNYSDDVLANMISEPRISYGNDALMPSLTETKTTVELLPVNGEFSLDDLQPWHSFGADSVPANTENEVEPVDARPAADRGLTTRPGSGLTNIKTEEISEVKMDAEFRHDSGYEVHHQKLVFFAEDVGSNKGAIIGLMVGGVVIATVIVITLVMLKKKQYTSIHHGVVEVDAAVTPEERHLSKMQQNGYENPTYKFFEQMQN

Row | SMILES | IC50 [1] [nM] | also measured
1 | NC(=O)c1ccc(-c2cc3cc(O)ccc3o2)c(F)n1 | 44 | –
2 | CNc1ccc(-c2nc3ccc(OC)cc3s2)c(F)n1 | 14 | –
3 | CNc1ccc(-c2cc3cc(O)ccc3o2)c(F)n1 [FLUTAFURANOL] | 24 | Activity ([2]; tested as the 3H-labelled form): Active; Activity ([3]; tested as the 3H-labelled form): Active
4 | CNc1ncc(-c2cc3cc(O)ccc3o2)cc1F | 30 | –
5 | CNc1ccc(-c2cc3cc(C(N)=O)ccc3o2)nc1F | 32 | –
6 | COc1ccc2nc(-c3ccc(NCCF)nc3)oc2c1 | 35 | Activity [4]: inactive
7 | COc1ccc2oc(-c3ccc(C(N)=O)nc3F)cc2c1 | 32 | –
8 | CNc1ccc(-c2cc3cc(C(N)=O)ccc3o2)c(F)n1 | 19 | –
9 | CNc1ccc(-c2nc3ccc(O)cc3s2)c(F)n1 | 124 | –
10 | CNc1ccc(-c2nc3ccc(O)cc3s2)nc1F | 44 | –
11 | CNc1ccc(-c2cc3cc(O)ccc3o2)nc1F | 35 | –

Second part, led by results:

Row | IC50 [1] [nM] | SMILES | also measured
12 | 33 | Oc1ccc2nc(-c3ccc(NCCF)nc3)sc2c1 | –
13 | 395 | Oc1ccc2nc(-c3ccc(NCCCF)nc3)oc2c1 | –
14 | 158 | Oc1ccc2nc(-c3ccc(NCCF)nc3)oc2c1 | –
15 | 66 | Oc1ccc2nc(-c3ccc(NCCCF)nc3)sc2c1 | –
16 | 98 | CNc1ncc(-c2nc3ccc(O)cc3s2)cc1F | –
17 | 24 | CNc1ccc(-c2nc3ccc(O)cc3s2)cc1F [FLUTEMETAMOL] | Activity [2]: Active; Activity [3]: Active
18 | 22 | CNc1ccc(-c2nc3ccc(O)cc3s2)cn1 | –
